# From ChEMBL document CHEMBL1201862, “PubChem BioAssay data set” (2004)
# Calls of active or inactive are those of the source.
# Tests used:
# [1] = HEK-293T viability loss after treatment – luminescence, T-cell screen hits, cytotoxicity control for TCR NF-kB inhibitor project, dose response (AID 489026); type: functional, cell-based;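 also: cells exposed to compound about 14 hours before the viability readout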
# [2] = molecular target: Voltage-dependent T-type calcium channel subunit alpha-1H (Homo sapiens, UniProt O95180); type: functional;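 also: channel activity triggered by adding a high calcium stimulation buffer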
# [3] = OVCAR-3 cell viability loss – plate reader, dry powder samples, PAX8 inhibitor project, dose response (AID 743044); type: functional, cell-based
# Paired box protein Pax-8 = Paired box protein Pax-8 (Homo sapiens, UniProt Q06710); assay: PAX8 transcriptional activity inhibition in RMG-I – RMG-I cells, luciferase, cherry-pick, dose response (AID 687027); type: functional, cell-based;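 also: luciferase reporter driven by Pax8 target thyroperoxidase promoter measured by SteadyGlo luminescence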
# [4] = A cytotoxicity screen of small molecule inhibitors of the PhoP region in Salmonella typhi identified in the primary screen. [Related pubchem assays: 1850, 1864, 1985 ]; type: functional
# Cytochrome P450 2D6 = Cytochrome P450 2D6 (Homo sapiens, UniProt P10635);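 also: CYP2D6 member of a cytochrome P450 panel assay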
# [5] = HEK-293T cell viability reduction – luminescence, B-cell screen hits, cytotoxicity control for BCR NF-kB inhibitor project, dose response (AID 489021); type: functional, cell-based;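 also: HEK-293T cells carrying an NF-kB luciferase reporter; cells exposed to compound for about 14 hours before viability readout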
# Streptococcus = assay: GAS UMAA2166 growth inhibition – luminescence, BacTiterGlo, counter-screen for streptokinase expression inhibitor project, dose response (AID 1915); type: functional, organism-based;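 also: potency for reduction of bacterial viability or growth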
# [6] = system: Streptococcus sp. 'group A'; assay: Streptococcus pyogenes SK(-)GAS viability under kanamycin – luminescence, BacTiterGlo, confirmation, counter-screen for streptokinase expression inhibitor project, dose response (AID 1900); type: functional, organism-based
# [7] = growth inhibition of yeast DHODH-expressing 3D7 parasites – SYBR Green, dry powder samples, dose response (AID 1159570); type: functional, cell-based;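 also: parasite growth measured after 72 hours of compound exposure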
# [8] = Dd2 malaria parasite growth inhibition potency – SYBR Green, dry powder samples, dose response (AID 1159566); type: functional, cell-based;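 also: potency for growth inhibition with lower SYBR green DNA signal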
# [9] = toxicity to human HepG2 hepatoma cells – cell-based, plate reader, dry powder samples, cytotoxicity control, dose response (AID 1159569); type: functional;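 also: inhibitor potency with signal falling toward the positive control level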
# [10] = growth inhibition of PfATP4-mutant resistant parasites – NITD609-resistant line, SYBR Green, dry powder, dose response (AID 1159571); type: functional, cell-based;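 also: parasites synchronized at ring stage by sorbitol before testing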
# [11] = P. falciparum Dd2 growth inhibitors, dose response, SYBR Green, cherry-picked samples (AID 1159567); type: functional, cell-based
# [12] = molecular target: T1, Endoribonuclease toxin MazF (Escherichia coli K-12, UniProt P0AE70); assay: activation of MazEF endoribonuclease cleavage – biochemical, fluorescence, single-stranded RNA substrate, uHTS hits, dose response (AID 588481); type: functional
# T1 sequence (P0AE70 whole entry): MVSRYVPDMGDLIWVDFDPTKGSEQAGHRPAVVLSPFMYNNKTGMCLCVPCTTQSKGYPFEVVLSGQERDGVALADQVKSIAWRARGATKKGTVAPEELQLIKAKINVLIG
# [13] = HPDE-C7 pancreatic duct cell viability loss – fluorescence, HTS (AID 430); type: functional, cell-based; conditions: Homo sapiens
# [14] = viability loss of HPDE-C7K cells – cell-based, fluorescence, HTS, primary screen (AID 431); type: functional; conditions: Homo sapiens
# [15] = molecular target: T1, Endoribonuclease toxin MazF; assay: substrate-only fluorescence increase artefacts – biochemical, single-stranded RNase substrate, counter-screen for MazEF activator project, dose response (AID 588502); type: functional
# INS1 = assay: INS-1E survival protection against cytokine death – cell-based, luminescence, retest, dose response (AID 449756); type: functional; conditions: Rattus norvegicus;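 also: cell death triggered by IL-1 beta plus TNF-alpha plus IFN-gamma mixture; protective hits raise ATP signal compared with cytokine alone wells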
# Estrogen receptor = molecular target: T2, Estrogen receptor (Homo sapiens, UniProt P03372);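 also: potency for inhibiting coactivator peptide recruitment to the receptor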
# T2 sequence (P03372 whole entry): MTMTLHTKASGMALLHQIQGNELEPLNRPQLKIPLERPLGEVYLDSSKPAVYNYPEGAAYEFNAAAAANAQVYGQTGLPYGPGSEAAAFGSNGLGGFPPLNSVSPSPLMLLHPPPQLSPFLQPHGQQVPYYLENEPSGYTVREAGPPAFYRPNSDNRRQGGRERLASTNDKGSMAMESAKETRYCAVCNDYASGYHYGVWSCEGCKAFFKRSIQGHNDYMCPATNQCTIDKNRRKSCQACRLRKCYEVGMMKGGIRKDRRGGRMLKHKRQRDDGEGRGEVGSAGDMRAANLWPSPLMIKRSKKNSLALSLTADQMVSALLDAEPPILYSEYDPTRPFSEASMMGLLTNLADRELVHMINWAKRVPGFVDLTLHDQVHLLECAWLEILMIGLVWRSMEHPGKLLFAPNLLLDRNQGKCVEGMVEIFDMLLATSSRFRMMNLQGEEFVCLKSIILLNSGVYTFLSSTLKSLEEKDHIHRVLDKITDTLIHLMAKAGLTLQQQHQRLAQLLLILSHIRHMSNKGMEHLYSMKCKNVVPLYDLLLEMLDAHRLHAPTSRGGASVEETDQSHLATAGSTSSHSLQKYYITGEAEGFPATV
# Cytochrome P450 3A4 = Cytochrome P450 3A4 (Homo sapiens, UniProt P08684); conditions: Potency;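 also: confirmatory qHTS run detecting inhibitors and substrates of CYP3A4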
# H9c2 = assay: cells; type: functional, cell-based; conditions: Rattus norvegicus, H9c2, Myocardium;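 also: confirmatory concentration-response retest of ultra-high-throughput screening hits for modulation of myocardial damage; cell death induced by hydrogen peroxide oxidative stress; compound pretreatment for 60 min then peroxide exposure for 2 h; potency is for protecting the cells against peroxide damage rather than for killing them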
# [16] = molecular target: T3, Short transient receptor potential channel 4 (Mus musculus, UniProt Q9QUQ5); assay: calcium entry via TRPC4 opening agents – cell-based, HEK293 TRPC4/mu-opioid, Fluo-4 calcium, dose response (AID 434937); type: functional
# T3 sequence (Q9QUQ5 whole entry): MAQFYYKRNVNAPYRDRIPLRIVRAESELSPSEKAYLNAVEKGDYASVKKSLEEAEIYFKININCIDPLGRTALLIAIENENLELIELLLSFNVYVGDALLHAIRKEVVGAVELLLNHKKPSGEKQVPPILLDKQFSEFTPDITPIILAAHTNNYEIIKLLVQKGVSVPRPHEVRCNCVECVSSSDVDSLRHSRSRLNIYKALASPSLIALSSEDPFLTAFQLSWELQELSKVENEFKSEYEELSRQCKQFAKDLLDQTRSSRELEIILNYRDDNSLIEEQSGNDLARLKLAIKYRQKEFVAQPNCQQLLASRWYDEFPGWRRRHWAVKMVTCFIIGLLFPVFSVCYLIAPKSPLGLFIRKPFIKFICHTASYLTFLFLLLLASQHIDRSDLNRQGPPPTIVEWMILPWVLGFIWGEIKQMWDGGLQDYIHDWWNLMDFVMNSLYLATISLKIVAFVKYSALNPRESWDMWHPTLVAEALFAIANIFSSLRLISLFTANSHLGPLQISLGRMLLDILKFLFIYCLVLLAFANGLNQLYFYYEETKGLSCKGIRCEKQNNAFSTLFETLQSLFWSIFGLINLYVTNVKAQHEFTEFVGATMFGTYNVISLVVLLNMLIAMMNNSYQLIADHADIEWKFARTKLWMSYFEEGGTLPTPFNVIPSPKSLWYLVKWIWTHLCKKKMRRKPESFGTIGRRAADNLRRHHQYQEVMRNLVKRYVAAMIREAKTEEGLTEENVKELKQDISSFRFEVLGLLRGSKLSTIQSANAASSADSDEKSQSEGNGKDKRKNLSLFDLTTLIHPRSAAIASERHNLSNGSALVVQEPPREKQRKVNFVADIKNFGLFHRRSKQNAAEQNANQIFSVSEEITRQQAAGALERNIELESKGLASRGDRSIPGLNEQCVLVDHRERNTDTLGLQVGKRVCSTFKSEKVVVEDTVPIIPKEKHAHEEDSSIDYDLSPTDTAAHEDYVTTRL
# [17] = molecular target: T4, Heat shock factor protein 1 (Mus musculus, UniProt P38532); assay: enhancement of HSF1-driven luciferase signal – cell-based, NIH3T3, luminescence, dose retest, confirmation (AID 435004); type: functional;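 also: stress induced by proteasome inhibitor MG132 added 30 min after compound; luciferase reporter driven by HSF1 response element in NIH3T3 cells; actives raise luminescence as potentiators of the MG132 stress response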
# T4 sequence (P38532 whole entry): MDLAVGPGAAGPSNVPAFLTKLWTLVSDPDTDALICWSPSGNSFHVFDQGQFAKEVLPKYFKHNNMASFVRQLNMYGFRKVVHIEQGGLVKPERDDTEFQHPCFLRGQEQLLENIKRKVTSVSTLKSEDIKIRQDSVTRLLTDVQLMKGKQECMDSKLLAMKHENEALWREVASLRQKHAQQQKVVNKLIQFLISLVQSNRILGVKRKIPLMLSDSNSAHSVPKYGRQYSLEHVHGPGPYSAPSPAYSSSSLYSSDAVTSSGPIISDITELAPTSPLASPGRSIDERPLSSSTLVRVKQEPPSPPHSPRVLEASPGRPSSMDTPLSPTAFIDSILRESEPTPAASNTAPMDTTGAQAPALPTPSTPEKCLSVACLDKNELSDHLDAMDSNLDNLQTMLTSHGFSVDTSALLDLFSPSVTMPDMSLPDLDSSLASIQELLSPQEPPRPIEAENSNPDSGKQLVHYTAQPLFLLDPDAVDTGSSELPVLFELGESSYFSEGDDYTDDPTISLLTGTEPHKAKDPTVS
# [18] = molecular target: Eukaryotic translation initiation factor 4E (Mus musculus, UniProt P63073); assay: blockers of eIF4G binding by eIF4E – biochemical, TR-FRET, dose response (AID 855); type: functional;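 also: potency for disrupting eIF4E binding to eIF4GI seen as loss of FRET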
# Chain of Eukaryotic translation initiation factor 4E (P63073 whole entry): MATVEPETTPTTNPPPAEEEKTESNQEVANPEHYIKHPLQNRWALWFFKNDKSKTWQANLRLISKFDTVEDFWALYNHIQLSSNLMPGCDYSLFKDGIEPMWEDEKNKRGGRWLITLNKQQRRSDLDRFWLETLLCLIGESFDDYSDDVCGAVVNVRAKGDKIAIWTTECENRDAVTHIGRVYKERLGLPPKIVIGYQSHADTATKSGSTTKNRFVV
# Chain of Voltage-dependent T-type calcium channel subunit alpha-1H (O95180 whole entry): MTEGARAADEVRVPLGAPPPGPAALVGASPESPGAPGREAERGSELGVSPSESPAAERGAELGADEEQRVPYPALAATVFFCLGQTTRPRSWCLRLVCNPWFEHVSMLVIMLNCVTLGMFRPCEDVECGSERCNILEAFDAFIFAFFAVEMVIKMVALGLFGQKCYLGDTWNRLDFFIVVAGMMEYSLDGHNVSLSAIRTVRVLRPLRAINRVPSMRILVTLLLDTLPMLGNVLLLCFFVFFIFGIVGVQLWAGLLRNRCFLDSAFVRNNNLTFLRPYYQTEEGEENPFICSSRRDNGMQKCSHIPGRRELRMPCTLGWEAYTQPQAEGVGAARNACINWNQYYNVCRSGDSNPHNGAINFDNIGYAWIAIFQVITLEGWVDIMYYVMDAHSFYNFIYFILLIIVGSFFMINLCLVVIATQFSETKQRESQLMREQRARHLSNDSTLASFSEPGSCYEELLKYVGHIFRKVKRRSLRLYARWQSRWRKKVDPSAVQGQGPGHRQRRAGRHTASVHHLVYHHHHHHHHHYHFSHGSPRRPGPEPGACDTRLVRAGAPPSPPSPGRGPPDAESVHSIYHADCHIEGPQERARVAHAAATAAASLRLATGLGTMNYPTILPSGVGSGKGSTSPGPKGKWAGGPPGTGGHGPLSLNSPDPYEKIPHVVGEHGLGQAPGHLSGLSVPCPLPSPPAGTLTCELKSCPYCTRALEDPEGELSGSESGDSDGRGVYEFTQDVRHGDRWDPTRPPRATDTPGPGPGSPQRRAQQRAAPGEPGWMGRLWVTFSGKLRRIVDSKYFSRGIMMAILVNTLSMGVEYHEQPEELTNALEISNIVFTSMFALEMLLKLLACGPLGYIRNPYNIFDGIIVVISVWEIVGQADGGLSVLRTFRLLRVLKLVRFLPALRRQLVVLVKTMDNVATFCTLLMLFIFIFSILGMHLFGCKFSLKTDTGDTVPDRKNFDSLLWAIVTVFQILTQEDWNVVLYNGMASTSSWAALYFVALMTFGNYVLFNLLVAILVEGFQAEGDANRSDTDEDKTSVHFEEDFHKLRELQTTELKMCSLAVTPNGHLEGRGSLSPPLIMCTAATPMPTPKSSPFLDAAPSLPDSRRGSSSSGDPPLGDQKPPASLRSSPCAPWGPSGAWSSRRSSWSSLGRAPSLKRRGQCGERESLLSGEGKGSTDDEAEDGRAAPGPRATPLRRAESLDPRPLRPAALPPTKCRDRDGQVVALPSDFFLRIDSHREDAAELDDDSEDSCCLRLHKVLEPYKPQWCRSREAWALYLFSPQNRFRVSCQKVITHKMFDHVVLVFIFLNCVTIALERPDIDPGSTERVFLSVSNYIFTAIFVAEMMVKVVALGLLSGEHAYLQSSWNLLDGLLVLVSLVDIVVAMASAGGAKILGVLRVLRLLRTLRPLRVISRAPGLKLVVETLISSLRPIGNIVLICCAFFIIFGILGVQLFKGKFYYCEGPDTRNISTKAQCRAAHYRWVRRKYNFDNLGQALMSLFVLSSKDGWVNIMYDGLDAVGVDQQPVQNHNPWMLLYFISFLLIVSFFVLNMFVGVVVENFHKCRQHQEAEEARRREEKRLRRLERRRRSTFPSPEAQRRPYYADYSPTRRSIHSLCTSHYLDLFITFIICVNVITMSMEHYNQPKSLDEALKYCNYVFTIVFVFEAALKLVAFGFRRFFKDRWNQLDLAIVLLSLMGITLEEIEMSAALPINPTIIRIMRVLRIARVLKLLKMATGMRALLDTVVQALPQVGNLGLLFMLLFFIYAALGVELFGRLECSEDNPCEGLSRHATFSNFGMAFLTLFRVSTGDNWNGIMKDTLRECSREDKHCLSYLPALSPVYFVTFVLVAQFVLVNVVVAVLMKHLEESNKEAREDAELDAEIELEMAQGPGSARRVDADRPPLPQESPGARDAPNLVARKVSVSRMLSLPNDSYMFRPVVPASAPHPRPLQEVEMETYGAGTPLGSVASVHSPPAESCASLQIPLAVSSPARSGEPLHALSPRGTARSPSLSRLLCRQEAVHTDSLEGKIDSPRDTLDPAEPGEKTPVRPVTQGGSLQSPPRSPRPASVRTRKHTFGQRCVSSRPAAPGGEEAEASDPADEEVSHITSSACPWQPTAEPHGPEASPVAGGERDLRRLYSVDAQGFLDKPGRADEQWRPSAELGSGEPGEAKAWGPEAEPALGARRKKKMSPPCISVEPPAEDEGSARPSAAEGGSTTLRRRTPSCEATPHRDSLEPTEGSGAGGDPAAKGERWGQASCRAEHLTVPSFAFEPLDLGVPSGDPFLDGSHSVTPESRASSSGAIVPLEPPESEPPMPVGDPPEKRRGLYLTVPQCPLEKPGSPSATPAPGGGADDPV
# Chain of Paired box protein Pax-8 (Q06710 whole entry): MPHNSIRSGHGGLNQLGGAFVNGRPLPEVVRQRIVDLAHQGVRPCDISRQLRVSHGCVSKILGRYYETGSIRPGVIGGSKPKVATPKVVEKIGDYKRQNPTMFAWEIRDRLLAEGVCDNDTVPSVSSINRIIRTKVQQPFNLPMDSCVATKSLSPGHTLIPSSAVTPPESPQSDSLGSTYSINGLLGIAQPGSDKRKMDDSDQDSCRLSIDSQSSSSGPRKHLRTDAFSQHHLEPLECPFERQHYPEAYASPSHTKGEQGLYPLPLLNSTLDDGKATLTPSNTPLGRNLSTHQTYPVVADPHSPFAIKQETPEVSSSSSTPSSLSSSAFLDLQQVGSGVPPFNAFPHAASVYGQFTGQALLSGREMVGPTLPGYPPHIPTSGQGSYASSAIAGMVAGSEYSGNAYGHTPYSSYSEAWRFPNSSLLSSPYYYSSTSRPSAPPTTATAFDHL
# Chain of Cytochrome P450 3A4 (P08684 whole entry): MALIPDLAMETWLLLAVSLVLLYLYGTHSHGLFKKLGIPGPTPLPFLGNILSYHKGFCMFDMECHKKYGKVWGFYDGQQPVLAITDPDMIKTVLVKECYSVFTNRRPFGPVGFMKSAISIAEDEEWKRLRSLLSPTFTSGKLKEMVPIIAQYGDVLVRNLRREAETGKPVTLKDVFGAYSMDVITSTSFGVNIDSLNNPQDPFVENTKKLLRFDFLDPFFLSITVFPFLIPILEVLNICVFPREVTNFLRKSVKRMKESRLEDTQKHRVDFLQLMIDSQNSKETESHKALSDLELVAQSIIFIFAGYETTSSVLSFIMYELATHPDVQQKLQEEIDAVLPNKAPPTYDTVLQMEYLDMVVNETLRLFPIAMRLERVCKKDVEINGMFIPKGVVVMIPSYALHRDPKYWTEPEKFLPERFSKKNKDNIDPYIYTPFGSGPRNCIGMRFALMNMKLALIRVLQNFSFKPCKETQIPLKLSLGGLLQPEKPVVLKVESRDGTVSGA
# Chain of Cytochrome P450 2D6 (P10635 whole entry): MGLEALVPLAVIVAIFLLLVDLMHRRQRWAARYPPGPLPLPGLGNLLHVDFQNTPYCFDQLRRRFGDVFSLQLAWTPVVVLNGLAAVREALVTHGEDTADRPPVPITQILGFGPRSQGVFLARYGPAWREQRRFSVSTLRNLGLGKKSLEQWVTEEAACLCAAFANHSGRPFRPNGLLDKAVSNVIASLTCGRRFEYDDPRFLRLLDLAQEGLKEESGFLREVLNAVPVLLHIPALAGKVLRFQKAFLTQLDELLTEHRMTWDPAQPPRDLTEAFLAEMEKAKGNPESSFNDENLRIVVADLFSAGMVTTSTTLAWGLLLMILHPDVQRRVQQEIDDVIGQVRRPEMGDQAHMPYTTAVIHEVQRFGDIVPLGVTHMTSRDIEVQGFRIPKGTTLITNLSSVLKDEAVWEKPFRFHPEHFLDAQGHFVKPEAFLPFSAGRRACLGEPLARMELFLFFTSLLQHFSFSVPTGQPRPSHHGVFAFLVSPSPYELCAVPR
smiles,measurement,setting,value
CCOC(=O)c1[nH]c(C)c(C(=O)Nc2cc(OC)ccc2OC)c1C,IC50,[1],> 80 µM (inactive)
C=CCn1c(SC(C)C(=O)NCCC2=CCCCC2)nc2ccccc2c1=O (configuration not stated),EC50,[2],3.01 µM (active)
C[C@@H]1CCCCO[C@@H](CN(C)Cc2ccc(Cl)c(Cl)c2)[C@H](C)CN([C@@H](C)CO)C(=O)c2cc(NC(=O)Nc3ccc(C(F)(F)F)cc3)ccc2O1,AC50,[3],29.6 µM (active)
same,AC50,Paired box protein Pax-8,5.08 µM (active)
COc1ccc(CCN(C(=O)C(F)(F)F)C(C(=O)NC2CCCC2)c2cccs2)cc1 (configuration not stated),EC50,[4],> 50 µM (active)
same,AC50,Cytochrome P450 2D6,25.1 µM (inconclusive)
C=C(C)[C@@H]1CC[C@]2(C(=O)O)CC[C@]3(C)[C@H](CC[C@@H]4[C@@]5(C)CCC(=O)C(C)(C)[C@@H]5CC[C@]43C)[C@@H]12 [BETUNOLIC ACID],IC50,[5],> 80 µM (inactive)
same,EC50,Streptococcus,2.88 µM (active)
same,EC50,[6],1.68 µM (active)
O=C(COc1ccc(Cl)cc1Cl)Nc1nc2n(n1)C(c1ccccc1)CC(=O)N2 (configuration not stated),EC50,[2],1.98 µM (active)
COc1ccc(C#Cc2ccc3c(c2)[C@H]2[C@H](CCN2Cc2ccncc2)[C@H](CO)N3)cc1,AC50,[7],1.18 µM (active)
same,AC50,[8],0.922 µM (active)
same,AC50,[9],65.7 µM (active)
same,AC50,[10],1.11 µM (active)
same,AC50,[11],1.19 µM (active)
Cn1c(=O)cc(Nc2ccccc2)c2c(=O)n(-c3ccccc3)c(=O)n(-c3ccccc3)c21,IC50,[5],> 80 µM (inactive)
Cc1ccc(C2=CC(c3ccc(N(C)C)cc3)n3nnnc3N2)cc1 (configuration not stated),EC50,[12],> 99 µM (inactive)
same,EC50,[13],0.09 µM (active)
same,EC50,[14],0.21 µM (active)
same,EC50,[15],> 99 µM (inactive)
same,AC50,INS1,6.88 µM (active)
O=C(OCn1nnc2ccccc2c1=O)c1cn(-c2ccccc2)nc1-c1cccnc1,IC50,Estrogen receptor,> 50 µM (not active)
CC(C)(C)n1nnnc1C(c1cccs1)N1CCCc2ccccc21 (configuration not stated),EC50,[2],8.88 µM (active)
C[C@H](CO)N1C[C@H](C)[C@@H](CN(C)C(=O)C2CCCCC2)Oc2ncc(/C=C/c3ccccc3)cc2C1=O,AC50,[7],0.608 µM (active)
same,AC50,[8],0.35 µM (active)
same,AC50,[9],50.2 µM (active)
same,AC50,[10],0.451 µM (active)
same,AC50,[11],0.658 µM (active)
CCN1CCN(c2nc3ccccc3nc2C(C#N)S(=O)(=O)c2ccc(C)cc2)CC1 (configuration not stated),EC50,[4],> 50 µM (active)
COc1cccc(-c2nc(NCc3ccco3)c3ccccc3n2)c1O,EC50,[13],> 20 µM (not active)
same,EC50,[14],1.11 µM (active)
CC(C)(C)c1ccc(-c2nnc(SCC(=O)NC3CC3)o2)cc1,IC50,[5],> 80 µM (inactive)
COc1cc(-c2cc(=O)c3c(O)c(OC)c(OC)c(OC)c3o2)cc(OC)c1OC [GARDENIN],IC50,[5],> 80 µM (inactive)
same,AC50,Cytochrome P450 3A4,3.16 µM (inconclusive)
c1cnc2nc(-c3ccc4c(c3)OCO4)cn2c1,EC50,[4],> 50 µM (active)
COc1nnc(-c2ccc(C)c(S(=O)(=O)NCCO)c2)c2ccccc12,IC50,H9c2,> 79 µM (inactive)
same,IC50,Estrogen receptor,> 50 µM (not active)
COc1cc(C)c(S(=O)(=O)NCc2ccc3c(c2)OCO3)cc1C,IC50,Estrogen receptor,> 50 µM (not active)
Cc1ccn(CC(=O)NC2CCCN(Cc3ccc(CC(C)C)cc3)C2)n1 (configuration not stated),EC50,[16],1.68 µM (active)
C[C@H]1CN([C@@H](C)CO)C(=O)c2c(c3ccccc3n2C)-c2ccccc2CO[C@H]1CN(C)C(=O)c1cc(Cl)cc(Cl)c1,AC50,[7],2.36 µM (active)
same,AC50,[8],1.48 µM (active)
same,AC50,[9],27.8 µM (active)
same,AC50,[10],1.58 µM (active)
same,AC50,[11],2.14 µM (active)
O=C(Oc1cccc2cccnc12)c1ccc(Br)o1,EC50,[13],13.9 µM (active)
same,EC50,[17],> 260 µM (inactive)
same,EC50,[14],> 20 µM (not active)
Cc1cc(-c2ccc(S(=O)(=O)N(C)c3ccc(C)c(C)c3)s2)on1,IC50,[1],> 80 µM (inactive)
CCOc1ccc2ccccc2c1C(=O)N[C@@H]1C(=O)N2[C@@H]1SC(C)(C)[C@@H]2C(=O)O [NAFCILLIN SODIUM],EC50,[4],> 50 µM (active)
same,IC50,H9c2,> 79 µM (inactive)
CSc1nccc(-c2nn(-c3ccc(C)cc3)ccc2=O)n1,IC50,[1],> 80 µM (inactive)
C[C@@H]1CCCCO[C@@H](CN(C)S(=O)(=O)c2ccc(Cl)cc2)[C@H](C)CN([C@@H](C)CO)C(=O)c2cc(N(C)C)ccc2O1,AC50,[3],28.3 µM (active)
same,AC50,Paired box protein Pax-8,3.28 µM (active)
COc1ccc(C(=O)C2CCCN(Cc3ccc(Sc4nncn4C)o3)C2)cc1F (configuration not stated),EC50,[16],3.35 µM (active)
Cc1cc(CSc2ccccc2)ccc1NC(=O)c1cccc([N+](=O)[O-])c1,IC50,[18],> 64 µM (inactive)
Cc1cc(NCc2ccccc2)nc(-c2ccccc2O)n1,EC50,[13],19.2 µM (active)
same,EC50,[14],10.3 µM (active)
